Key:
Assay in all cases: KINOMEscan competition binding
[1] = tested on: ABL1 (human), P00519 [M351T]; conditions: compound 1.0 µM
ACVR2A (human) = ACVR2A (human) (UniProt P27037); conditions: compound 1.0 µM
AKT2 (human) = AKT2 (human) (UniProt P31751); conditions: compound 1.0 µM
AXL (human) = AXL (human) (UniProt P30530); conditions: compound 1.0 µM
BMPR1A (human) = BMPR1A (human) (UniProt P36894); conditions: compound 1.0 µM
BRSK1 (human) = BRSK1 (human) (UniProt Q8TDC3); conditions: compound 1.0 µM
BTK (human) = BTK (human) (UniProt Q06187); conditions: compound 1.0 µM
CDC42BPG (human) = CDC42BPG (human) (UniProt Q6DT37); conditions: for kinase still bound, per cent of control: compound 1.0 µM
CDC42BPG (human), sequence (Q6DT37 whole entry, looked up): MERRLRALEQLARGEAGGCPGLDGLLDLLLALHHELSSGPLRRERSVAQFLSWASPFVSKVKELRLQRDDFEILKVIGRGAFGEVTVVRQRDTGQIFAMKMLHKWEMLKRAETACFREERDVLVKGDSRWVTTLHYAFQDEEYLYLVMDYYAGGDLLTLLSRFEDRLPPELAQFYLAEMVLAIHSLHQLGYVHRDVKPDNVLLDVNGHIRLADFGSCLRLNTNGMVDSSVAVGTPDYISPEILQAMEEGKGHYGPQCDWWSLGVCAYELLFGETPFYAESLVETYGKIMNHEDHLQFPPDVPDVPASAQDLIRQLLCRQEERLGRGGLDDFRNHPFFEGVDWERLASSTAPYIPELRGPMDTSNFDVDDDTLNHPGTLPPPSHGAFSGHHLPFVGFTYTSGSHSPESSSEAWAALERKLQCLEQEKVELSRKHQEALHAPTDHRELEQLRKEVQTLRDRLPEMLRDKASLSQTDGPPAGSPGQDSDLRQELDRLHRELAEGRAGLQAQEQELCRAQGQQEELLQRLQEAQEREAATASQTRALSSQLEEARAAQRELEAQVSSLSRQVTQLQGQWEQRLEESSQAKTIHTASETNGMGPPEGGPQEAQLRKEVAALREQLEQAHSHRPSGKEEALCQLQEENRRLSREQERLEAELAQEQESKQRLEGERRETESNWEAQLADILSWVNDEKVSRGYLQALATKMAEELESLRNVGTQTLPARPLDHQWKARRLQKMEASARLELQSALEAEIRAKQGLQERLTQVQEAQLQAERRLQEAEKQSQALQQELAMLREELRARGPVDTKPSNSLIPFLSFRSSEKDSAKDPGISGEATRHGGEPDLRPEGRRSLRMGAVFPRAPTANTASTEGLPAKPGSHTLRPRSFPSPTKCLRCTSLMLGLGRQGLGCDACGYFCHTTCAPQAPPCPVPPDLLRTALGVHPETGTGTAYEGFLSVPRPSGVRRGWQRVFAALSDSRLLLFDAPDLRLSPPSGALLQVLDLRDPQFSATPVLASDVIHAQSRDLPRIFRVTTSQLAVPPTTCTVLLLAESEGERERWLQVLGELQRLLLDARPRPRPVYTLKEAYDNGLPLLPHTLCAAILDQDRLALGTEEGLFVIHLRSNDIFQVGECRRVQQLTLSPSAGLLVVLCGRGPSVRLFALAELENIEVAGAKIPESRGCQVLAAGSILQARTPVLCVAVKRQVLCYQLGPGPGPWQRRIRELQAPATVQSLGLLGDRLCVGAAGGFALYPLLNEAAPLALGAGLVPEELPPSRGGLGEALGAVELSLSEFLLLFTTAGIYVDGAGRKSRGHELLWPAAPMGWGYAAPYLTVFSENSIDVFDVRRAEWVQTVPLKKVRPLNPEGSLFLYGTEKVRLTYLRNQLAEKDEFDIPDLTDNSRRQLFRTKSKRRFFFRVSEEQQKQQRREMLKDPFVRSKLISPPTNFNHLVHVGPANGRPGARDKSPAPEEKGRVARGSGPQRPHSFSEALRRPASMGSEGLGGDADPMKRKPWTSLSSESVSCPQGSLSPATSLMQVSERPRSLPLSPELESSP

CLK3 (human) = CLK3 (human) (UniProt P49761); conditions: compound 1.0 µM
CLK4 (human) = CLK4 (human) (UniProt Q9HAZ1); conditions: compound 1.0 µM
CSNK1E (human) = CSNK1E (human) (UniProt P49674); conditions: compound 1.0 µM
CSNK1E (human), sequence (P49674 whole entry, looked up): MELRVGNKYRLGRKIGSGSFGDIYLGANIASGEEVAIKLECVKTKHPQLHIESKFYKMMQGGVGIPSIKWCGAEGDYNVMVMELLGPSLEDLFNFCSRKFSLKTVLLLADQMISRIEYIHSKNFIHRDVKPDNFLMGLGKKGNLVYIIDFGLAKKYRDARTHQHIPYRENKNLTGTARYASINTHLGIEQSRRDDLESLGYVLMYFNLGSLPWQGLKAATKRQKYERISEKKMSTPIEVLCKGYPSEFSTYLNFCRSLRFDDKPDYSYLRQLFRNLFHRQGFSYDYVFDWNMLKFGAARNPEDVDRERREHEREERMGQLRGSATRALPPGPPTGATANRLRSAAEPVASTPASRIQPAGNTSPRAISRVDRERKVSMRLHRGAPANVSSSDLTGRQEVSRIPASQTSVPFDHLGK

CSNK2A1 (human) = CSNK2A1 (human) (UniProt P68400); conditions: compound 1.0 µM
EGFR (human) = EGFR (human) (UniProt P00533); conditions: compound 1.0 µM
EPHA4 (human) = EPHA4 (human) (UniProt P54764); conditions: compound 1.0 µM
ERBB2 (human) = ERBB2 (human) (UniProt P04626); conditions: for kinase still bound, per cent of control: compound 1.0 µM
ERBB2 (human), sequence (P04626 whole entry, looked up): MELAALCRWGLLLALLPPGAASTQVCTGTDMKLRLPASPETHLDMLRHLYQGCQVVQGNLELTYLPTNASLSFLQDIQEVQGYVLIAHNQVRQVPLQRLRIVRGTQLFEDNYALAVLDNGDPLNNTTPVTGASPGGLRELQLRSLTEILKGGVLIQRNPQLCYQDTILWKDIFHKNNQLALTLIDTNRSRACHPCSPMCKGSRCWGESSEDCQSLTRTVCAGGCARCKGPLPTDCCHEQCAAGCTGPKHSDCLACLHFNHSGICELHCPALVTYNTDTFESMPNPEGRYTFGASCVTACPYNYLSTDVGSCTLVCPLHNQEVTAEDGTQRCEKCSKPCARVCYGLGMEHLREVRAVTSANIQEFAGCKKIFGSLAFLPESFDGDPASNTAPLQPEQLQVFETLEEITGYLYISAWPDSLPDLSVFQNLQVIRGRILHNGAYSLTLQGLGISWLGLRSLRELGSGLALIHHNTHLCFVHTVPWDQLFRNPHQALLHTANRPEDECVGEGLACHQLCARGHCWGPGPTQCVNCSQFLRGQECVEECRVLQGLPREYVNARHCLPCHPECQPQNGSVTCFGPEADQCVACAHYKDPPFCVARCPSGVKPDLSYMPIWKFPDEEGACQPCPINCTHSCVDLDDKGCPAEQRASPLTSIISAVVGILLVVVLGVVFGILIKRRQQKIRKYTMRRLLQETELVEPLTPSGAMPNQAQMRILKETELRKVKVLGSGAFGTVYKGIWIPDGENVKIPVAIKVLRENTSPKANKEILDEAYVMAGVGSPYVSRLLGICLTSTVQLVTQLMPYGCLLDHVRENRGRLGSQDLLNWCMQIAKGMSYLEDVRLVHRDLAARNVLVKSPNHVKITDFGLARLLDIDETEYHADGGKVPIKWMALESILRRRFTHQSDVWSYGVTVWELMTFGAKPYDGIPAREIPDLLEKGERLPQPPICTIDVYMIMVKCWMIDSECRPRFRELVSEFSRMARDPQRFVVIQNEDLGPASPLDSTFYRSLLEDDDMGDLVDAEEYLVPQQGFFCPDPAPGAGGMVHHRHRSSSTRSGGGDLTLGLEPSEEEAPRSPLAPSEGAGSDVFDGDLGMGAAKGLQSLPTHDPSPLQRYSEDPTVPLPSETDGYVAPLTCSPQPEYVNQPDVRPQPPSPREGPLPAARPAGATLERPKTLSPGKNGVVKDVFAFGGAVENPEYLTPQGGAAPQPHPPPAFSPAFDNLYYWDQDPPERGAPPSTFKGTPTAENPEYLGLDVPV

FGFR3 (human) = FGFR3 (human) (UniProt P22607); conditions: compound 1.0 µM
[2] = tested on: FLT3 (human), P36888 [ITD]; conditions: compound 1.0 µM
[3] = tested on: FLT3 (human), P36888 [N841I]; conditions: compound 1.0 µM
[4] = tested on: KIT (human), P10721 [D816V]; conditions: compound 1.0 µM
[5] = tested on: KIT (human), P10721 [V559D/T670I]; conditions: compound 1.0 µM
[6] = tested on: LRRK2 (human), Q5S007 [G2019S]; conditions: compound 1.0 µM
MAP3K5 (human) = MAP3K5 (human) (UniProt Q99683); conditions: compound 1.0 µM
MAPK13 (human) = MAPK13 (human) (UniProt O15264); conditions: compound 1.0 µM
MLTK (human) = MLTK (human) (UniProt Q9NYL2); conditions: compound 1.0 µM
MST1R (human) = MST1R (human) (UniProt Q04912); conditions: compound 1.0 µM
MST4 (human) = MST4 (human) (UniProt Q9P289); conditions: compound 1.0 µM
PDGFRB (human) = PDGFRB (human) (UniProt P09619); conditions: compound 1.0 µM
PIK3CG (human) = PIK3CG (human) (UniProt P48736); conditions: compound 1.0 µM
PIP4K2C (human) = PIP4K2C (human) (UniProt Q8TBX8); conditions: for kinase still bound, per cent of control: compound 1.0 µM
PIP4K2C (human), sequence (Q8TBX8 whole entry, looked up): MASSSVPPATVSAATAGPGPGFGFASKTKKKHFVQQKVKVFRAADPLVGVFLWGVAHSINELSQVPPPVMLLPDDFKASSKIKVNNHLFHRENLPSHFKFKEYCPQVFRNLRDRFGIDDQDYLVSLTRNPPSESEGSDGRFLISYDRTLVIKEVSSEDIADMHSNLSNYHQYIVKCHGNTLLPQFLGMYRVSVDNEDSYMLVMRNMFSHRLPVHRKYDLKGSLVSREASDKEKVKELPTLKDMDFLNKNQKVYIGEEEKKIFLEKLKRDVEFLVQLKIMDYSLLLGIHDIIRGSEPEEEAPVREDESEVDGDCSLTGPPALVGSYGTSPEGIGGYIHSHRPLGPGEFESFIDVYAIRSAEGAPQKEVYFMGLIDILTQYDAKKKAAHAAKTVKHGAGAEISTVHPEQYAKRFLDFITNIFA

PKN3 (M.tuberculosis) = PKN3 (M.tuberculosis) (UniProt Q6P5Z2); conditions: compound 1.0 µM
PLK2 (human) = PLK2 (human) (UniProt Q9NYY3); conditions: compound 1.0 µM
RIOK2 (human) = RIOK2 (human) (UniProt Q9BVS4); conditions: for kinase still bound, per cent of control: compound 1.0 µM
RIOK2 (human), sequence (Q9BVS4 whole entry, looked up): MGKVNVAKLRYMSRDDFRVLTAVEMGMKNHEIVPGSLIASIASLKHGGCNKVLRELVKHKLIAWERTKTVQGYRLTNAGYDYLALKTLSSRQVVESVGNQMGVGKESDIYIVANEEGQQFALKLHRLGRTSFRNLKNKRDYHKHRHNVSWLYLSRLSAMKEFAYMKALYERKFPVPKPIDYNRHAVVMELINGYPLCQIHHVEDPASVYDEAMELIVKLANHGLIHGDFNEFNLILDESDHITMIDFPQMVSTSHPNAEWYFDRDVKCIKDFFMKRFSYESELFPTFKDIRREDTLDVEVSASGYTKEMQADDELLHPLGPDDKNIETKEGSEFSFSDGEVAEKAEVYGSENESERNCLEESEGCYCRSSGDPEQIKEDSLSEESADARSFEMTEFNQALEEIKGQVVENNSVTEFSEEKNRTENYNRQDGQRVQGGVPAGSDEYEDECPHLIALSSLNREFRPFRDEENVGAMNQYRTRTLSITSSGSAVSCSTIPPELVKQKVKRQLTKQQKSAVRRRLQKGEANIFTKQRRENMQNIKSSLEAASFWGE

RIPK2 (human) = RIPK2 (human) (UniProt O43353); conditions: compound 1.0 µM
ROS1 (human) = ROS1 (human) (UniProt P08922); conditions: compound 1.0 µM
SIK3 (human) = SIK3 (human) (UniProt Q9Y2K2); conditions: compound 1.0 µM
SRPK3 (human) = SRPK3 (human) (UniProt Q9UPE1); conditions: compound 1.0 µM
TAOK1 (human) = TAOK1 (human) (UniProt Q7L7X3); conditions: compound 1.0 µM
TNK2 (human) = TNK2 (human) (UniProt Q07912); conditions: compound 1.0 µM
TTK (human) = TTK (human) (UniProt P33981); conditions: compound 1.0 µM
[7] = molecular target: TYK2 JH1 catalytic (human) (UniProt P29597); conditions: compound 1.0 µM
TYRO3 (human) = TYRO3 (human) (UniProt Q06418); conditions: compound 1.0 µM
ZAP70 (human) = ZAP70 (human) (UniProt P43403); conditions: compound 1.0 µM
ZAP70 (human), sequence (P43403 whole entry, looked up): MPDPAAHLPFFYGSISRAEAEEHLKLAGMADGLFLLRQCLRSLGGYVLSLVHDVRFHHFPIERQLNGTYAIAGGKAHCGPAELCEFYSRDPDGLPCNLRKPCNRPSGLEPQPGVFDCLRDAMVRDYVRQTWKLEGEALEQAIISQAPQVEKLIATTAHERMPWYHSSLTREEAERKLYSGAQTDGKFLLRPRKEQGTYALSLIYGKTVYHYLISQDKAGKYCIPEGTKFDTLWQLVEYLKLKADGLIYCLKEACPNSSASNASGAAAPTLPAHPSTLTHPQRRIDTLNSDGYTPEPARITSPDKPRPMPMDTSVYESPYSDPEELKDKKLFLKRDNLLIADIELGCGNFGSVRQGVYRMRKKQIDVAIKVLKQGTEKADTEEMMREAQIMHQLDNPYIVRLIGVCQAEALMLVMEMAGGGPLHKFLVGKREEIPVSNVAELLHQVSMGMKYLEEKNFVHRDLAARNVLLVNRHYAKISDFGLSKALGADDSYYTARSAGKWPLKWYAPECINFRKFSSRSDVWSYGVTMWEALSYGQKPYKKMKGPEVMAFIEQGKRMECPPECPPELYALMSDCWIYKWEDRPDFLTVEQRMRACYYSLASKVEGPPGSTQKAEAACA

`CN(C)C/C=C/C(=O)Nc1cccc(C(=O)Nc2ccc(Nc3nccc(-c4cccnc4)n3)cc2)c1` gave a kinase still bound, per cent of control [1] of 42%, a kinase still bound, per cent of control (ACVR2A (human)) of 43% and a kinase still bound, per cent of control (AKT2 (human)) of 96%. For the same compound, the kinase still bound, per cent of control (AXL (human)) was 100%, the kinase still bound, per cent of control (BMPR1A (human)) was 46% and the kinase still bound, per cent of control (BRSK1 (human)) was 85%. For the same compound, the kinase still bound, per cent of control (BTK (human)) was 76%, the kinase still bound, per cent of control (CDC42BPG (human)) was 73% and the kinase still bound, per cent of control (CLK3 (human)) was 84%. It also gave a kinase still bound, per cent of control (CLK4 (human)) of 16%, a kinase still bound, per cent of control (CSNK1E (human)) of 6.8% and a kinase still bound, per cent of control (CSNK2A1 (human)) of 17%. It also gave a kinase still bound, per cent of control (EGFR (human)) of 95%, a kinase still bound, per cent of control (EPHA4 (human)) of 94% and a kinase still bound, per cent of control (ERBB2 (human)) of 92%. It also gave a kinase still bound, per cent of control (FGFR3 (human)) of 78%, a kinase still bound, per cent of control [2] of 16% and a kinase still bound, per cent of control [3] of 18%. For the same compound, the kinase still bound, per cent of control [4] was 16%, the kinase still bound, per cent of control [5] was 9.8% and the kinase still bound, per cent of control [6] was 51%. For the same compound, the kinase still bound, per cent of control (MAP3K5 (human)) was 100%, the kinase still bound, per cent of control (MAPK13 (human)) was 100% and the kinase still bound, per cent of control (MLTK (human)) was 46%. The kinase still bound, per cent of control (MST1R (human)) was 100%, the kinase still bound, per cent of control (MST4 (human)) was 34% and the kinase still bound, per cent of control (PDGFRB (human)) was 6%. For the same compound, the kinase still bound, per cent of control (PIK3CG (human)) was 21%, the Kd (PIP4K2C (human)) was 32 nM and the kinase still bound, per cent of control (PIP4K2C (human)) was 3.3%. For the same compound, the kinase still bound, per cent of control (PKN3 (M.tuberculosis)) was 69%, the kinase still bound, per cent of control (PLK2 (human)) was 74% and the Kd (RIOK2 (human)) was 30 nM. For the same compound, the kinase still bound, per cent of control (RIOK2 (human)) was 2.2%, the kinase still bound, per cent of control (RIPK2 (human)) was 55% and the kinase still bound, per cent of control (ROS1 (human)) was 100%. The kinase still bound, per cent of control (SIK3 (human)) was 100%, the kinase still bound, per cent of control (SRPK3 (human)) was 28% and the kinase still bound, per cent of control (TAOK1 (human)) was 13%. For the same compound, the kinase still bound, per cent of control (TNK2 (human)) was 100%, the kinase still bound, per cent of control (TTK (human)) was 97% and the kinase still bound, per cent of control [7] was 16%. For the same compound, the kinase still bound, per cent of control (TYRO3 (human)) was 87% and the kinase still bound, per cent of control (ZAP70 (human)) was 100%.

`CN(C)C/C=C/C(=O)Nc1cccc(C(=O)Nc2ccc(Nc3nccc(-c4c(-c5ccccc5)nn5ccccc45)n3)cc2)c1` gave a kinase still bound, per cent of control [1] of 14%, a kinase still bound, per cent of control (ACVR2A (human)) of 5.1% and a kinase still bound, per cent of control (AKT2 (human)) of 100%. It also gave a kinase still bound, per cent of control (AXL (human)) of 58%, a kinase still bound, per cent of control (BMPR1A (human)) of 66% and a kinase still bound, per cent of control (BRSK1 (human)) of 86%. The kinase still bound, per cent of control (BTK (human)) was 100%, the Kd (CDC42BPG (human)) was 18 nM and the kinase still bound, per cent of control (CDC42BPG (human)) was 0.25%. The kinase still bound, per cent of control (CLK3 (human)) was 100%, the kinase still bound, per cent of control (CLK4 (human)) was 100% and the kinase still bound, per cent of control (CSNK1E (human)) was 0%. The kinase still bound, per cent of control (CSNK2A1 (human)) was 74%, the kinase still bound, per cent of control (EGFR (human)) was 1.8% and the kinase still bound, per cent of control (EPHA4 (human)) was 89%. The Kd (ERBB2 (human)) was 230 nM, the kinase still bound, per cent of control (ERBB2 (human)) was 0.4% and the kinase still bound, per cent of control (FGFR3 (human)) was 100%. The kinase still bound, per cent of control [2] was 11%, the kinase still bound, per cent of control [3] was 4% and the kinase still bound, per cent of control [4] was 33%. It also gave a kinase still bound, per cent of control [5] of 4%, a kinase still bound, per cent of control [6] of 100% and a kinase still bound, per cent of control (MAP3K5 (human)) of 100%. For the same compound, the kinase still bound, per cent of control (MAPK13 (human)) was 100%, the kinase still bound, per cent of control (MLTK (human)) was 11% and the kinase still bound, per cent of control (MST1R (human)) was 100%. For the same compound, the kinase still bound, per cent of control (MST4 (human)) was 85%, the kinase still bound, per cent of control (PDGFRB (human)) was 0.2% and the kinase still bound, per cent of control (PIK3CG (human)) was 84%. The kinase still bound, per cent of control (PIP4K2C (human)) was 86%, the kinase still bound, per cent of control (PKN3 (M.tuberculosis)) was 100% and the kinase still bound, per cent of control (PLK2 (human)) was 81%. For the same compound, the kinase still bound, per cent of control (RIOK2 (human)) was 27%, the kinase still bound, per cent of control (RIPK2 (human)) was 12% and the kinase still bound, per cent of control (ROS1 (human)) was 100%. It also gave a kinase still bound, per cent of control (SIK3 (human)) of 100%, a kinase still bound, per cent of control (SRPK3 (human)) of 100% and a kinase still bound, per cent of control (TAOK1 (human)) of 40%. For the same compound, the kinase still bound, per cent of control (TNK2 (human)) was 100%, the kinase still bound, per cent of control (TTK (human)) was 94% and the kinase still bound, per cent of control [7] was 76%. The kinase still bound, per cent of control (TYRO3 (human)) was 81% and the kinase still bound, per cent of control (ZAP70 (human)) was 96%.

Source: the kinase profiling compilation of Christmann-Franck et al. (2016)
